Results as given in patent US20140234884A1, “FLUOROGENIC SUBSTRATES, METHODS OF MAKING THE SUBSTRATES, AND METHODS OF DETECTING GLYCOSIDASE ACTIVITIES” (UNIVERSITE DE STRASBOURG, priority 2010, published 2014).
Several values for one entry are separate records, joined by “and”; a condition that tells them apart may be missing. Equal values may be shown once. Read-outs that look alike come from different tables or passages of the source.

Legend:
xylanase = conditions: extracts diluted 100 times; substrate 0.25 mM; phosphate buffer pH 7.5; 30° C; 120 minutes; excitation/emission 339/452 nm
Protocol: (§1) The enzymatic kinetics are achieved in a microplate on soluble enzymatic extracts (A, B, C and D) rich in activities of the cellulase and xylanase type. These extracts are diluted 10 times (substrate 18, FIG. 1) or 100 times (substrate 10, 12 and 14, FIG. 2) in a 50 mM phosphate buffer, NaCl 150 mM, pH=7.5. A volume of 20 μL of diluted enzymatic extract is added to 20 μL of fluorogenic substrate (10, 12, 14 or 18) at 0.25 mM in a 50 mM phosphate buffer, NaCl 150 mM, pH=7.5. The kinetics are achieved at 30° C. The enzymatic hydrolysis of the different fluorogenic substrate is followed for 120 minutes by measuring the fluorescence with excitation and emission wavelengths of: 339 nm and 452 nm for the substrates 10, 12 and 14; 375 nm and 510 nm for the substrate 18.

β-xylosidase = conditions: extracts diluted 100 times; substrate 0.25 mM; phosphate buffer pH 7.5; 30° C; 120 minutes; excitation/emission 339/452 nm
Protocol: as §1

β-glucosidase [1] = conditions: substrate 0.25 mM, phosphate buffer pH 7.5, 30° C, 120 minutes
Protocol: as §1

β-glucosidase [2] = conditions: substrate 0.25 mM in inducing Dubos medium with carboxymethyl-cellulose; 30° C, 24 h; excitation/emission 388/455 nm
Protocol: (§2) Different control strains are cultivated in an LB medium at 30° C. with stirring (240 rpm) for 18 h. For each strain, the culture is centrifuged (2,500 g, 5 min) and the pellet of cells is washed twice in 5 mL of LB medium (centrifugation at 2,500 g, 5 min). This pellet is used for inoculating at OD=0.005 a culture in an inducing medium (Dubos medium with 2.5 g/L of carboxymethyl-cellulose) containing the fluorogenic substrate (8 or 10) at 0.25 mM. The culture is incubated at 30° C. without stirring for 24 h. Culture supernatant samples are taken at different incubation times in order to be able to follow the occurrence of cellulase or β-glucosidase activities in the culture medium. The occurrence of these activities is followed by measurement of the fluorescence on the culture supernatants in microplates with excitation and emission wavelengths of 388 nm and 455 nm.

cellulase = conditions: substrate 0.25 mM in inducing Dubos medium with carboxymethyl-cellulose; 30° C, 24 h; excitation/emission 388/455 nm
Protocol: as §2

[3] = system: Bacillus subtilis NCIM 2724
Protocol: (§3) Two control stains are used: one having a cellulase activity (Bacillus subtilis NCIM 2724) the other one not having any activity (Escherichia coli BL21). Both strains are cultivated in an LB medium at 30° C. with stirring (240 rpm) for 18 h. For each strain, the culture is centrifuged (2 500 g, 5 min) and the pellet of cells is washed twice in 5 mL of an LB medium (centrifugation at 2 500 g, 5 min). This pellet is used for inoculation at OD=0.005 a culture in an inducing medium (Dubos medium with 2.5 g/L of carboxymethyl-cellulose) containing the fluorogenic substrate 8 and 2.5 μM (B. subtilis NCIM 2724) or 10 μM (E. coli BL21) of sulforhodamine. Both of these cell suspensions are used with perfluorinated oil in order to produce an emulsion consisting of two populations of droplets each containing one of the described suspensions. The blue and red fluorescences of the droplets are measured individually, on a sample of the emulsion, during production (t=0 h) and reinjection after having incubated the emulsion for 24 h at 30° C.
(§4) The graphs a and b, shown in FIG. 5, are two dimensional histograms of the red (in abscissas, RFU) and blue (in ordinates, RFU) fluorescence intensities measured on the emulsion during its production (a) and its reinjection after incubation fro 24 h at 30° C. (b). The population density is illustrated by a color code varying from pink (1 droplet) to red (>1,000 droplets) according to a logarithmic scale.

Escherichia coli BL21 = conditions: inactive strain
Protocol: as §3, §4

O=c1cc(CS(=O)(=O)[O-])c2cc(F)c(O[C@@H]3OC[C@@H](O[C@@H]4OC[C@@H](O)[C@H](O)[C@H]4O)[C@H](O)[C@H]3O)c(F)c2o1.[Na+] [substrate 14, sodium β-D-xylobioside 6,8-difluoro-7-hydroxycoumarin-4-methanesulfonate]
detection of enzymatic activity of xylanase type by fluorescence (xylanase): allow detection of the enzymatic activities

O=c1cc(CS(=O)(=O)[O-])c2cc(F)c(O[C@@H]3OC[C@@H](O)[C@H](O)[C@H]3O)c(F)c2o1.[Na+] [substrate 12, sodium β-D-xyloside 6,8-difluoro-7-hydroxycoumarin-4-methanesulfonate]
detection of enzymatic activity of type β-xylosidase by fluorescence (β-xylosidase): allow detection of the enzymatic activities

O=c1cc(CS(=O)(=O)[O-])c2cc(F)c(O[C@@H]3O[C@H](CO)[C@@H](O)[C@H](O)[C@H]3O)c(F)c2o1.[Na+] [substrate 10, sodium β-D-glucoside 6,8-difluoro-7-hydroxycoumarin-4-methanesulfonate]
detection of enzymatic activity of type β-glucosidase by fluorescence (β-glucosidase [1]; extracts diluted 100 times, excitation/emission 339/452 nm): allow detection of the enzymatic activities
detection of enzymatic activity of the β-glucosidase type on cultures of microorganisms (β-glucosidase [2]): allow detection of the enzymatic activities

O=c1cc(CS(=O)(=O)[O-])c2cc(F)c(O[C@@H]3O[C@H](CO)[C@@H](O[C@@H]4O[C@H](CO)[C@@H](O)[C@H](O)[C@H]4O)[C@H](O)[C@H]3O)c(F)c2o1.[Na+] [substrate 8, sodium β-D-cellobioside 6,8-difluoro-7-hydroxycoumarin-4-methanesulfonate]
detection of enzymatic activity of the cellulase type on cultures of microorganisms (cellulase): allow detection of the enzymatic activities
change of blue fluorescence of the droplets ([3]; after 24 h of incubation at 30° C, active strain): blue fluorescence significantly increased
detection of an activity of the cellulase type on microorganisms within an emulsion ([3]; emulsion generated by a microfluidic system, 24 h at 30° C): allows detection of an activity of the cellulase type
% of positive droplets ([3]; reinjection (t = 24 h) after incubation at 30° C, active strain, 2.5 μM sulforhodamine, threshold 37.56 RFU blue fluorescence): 27% and 27.61%
change of blue fluorescence of the droplets (Escherichia coli BL21; after 24 h of incubation at 30° C): do not have any increase of their blue fluorescence
% of positive droplets (Escherichia coli BL21; reinjection (t = 24 h) after incubation at 30° C, 10 μM sulforhodamine, threshold 37.56 RFU blue fluorescence): 0.26%

O=c1cc(CS(=O)(=O)[O-])c2c(cc(O[C@@H]3O[C@H](CO)[C@@H](O)[C@H](O)[C@H]3O)c3ccccc32)o1.[Na+] [substrate 18, sodium β-D-glucoside 5,6-benzo-7-hydroxycoumarin-4-methanesulfonate]
detection of enzymatic activity of type β-glucosidase by fluorescence (β-glucosidase [1]; extracts diluted 10 times, excitation/emission 375/510 nm): allow detection of the enzymatic activities
